Experimental data: the supplement of paper PMC10307832

Compound: NCC(=O)Nc1ccc(-n2nc(C(F)(F)F)cc2-c2ccc3c(ccc4ccccc43)c2)cc1 + Cc1nc(Nc2ncc(C(=O)Nc3c(C)cccc3Cl)s2)cc(N2CCN(CCO)CC2)n1 [Dasatinib] (partner 0.075 µM)
Assay: relative viability (nuclei count vs DMSO), 5 days (fraction); higher = more cells survive
Method in brief: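 After 5 days of treatment, lung cancer cells in 1536-well plates were fixed and stained in a single step (final 0.05% Triton X-100, 1% formaldehyde, 1 ug/ml Hoechst) and their nuclei counted on 4× images. Treatment had been applied by pin tool the day after seeding as one drug alone or as a fixed anchor-drug dose with five library-drug doses (not always all listed) in √10 steps. Relative viability is the nuclei count of treated wells divided by that of vehicle wells, and values are medians of duplicate plates.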

With HCC-366 the relative viability (first compound 0.02 µM) was 0.659, the relative viability (first compound 0.06325 µM) was 0.644 and the relative viability (first compound 0.2 µM) was 0.615. The relative viability (first compound 0.6325 µM) was 0.621 and the relative viability (first compound 2 µM) was 0.624.

Work on EMC-BAC-2 yielded a relative viability (first compound 0.02 µM) of 0.316, a relative viability (first compound 0.06325 µM) of 0.286 and a relative viability (first compound 0.2 µM) of 0.325. The relative viability (first compound 0.6325 µM) was 0.377 and the relative viability (first compound 2 µM) was 0.338.

NCI-H2405 gave a relative viability (first compound 0.02 µM) of 0.225, a relative viability (first compound 0.06325 µM) of 0.202 and a relative viability (first compound 0.2 µM) of 0.185. For the same cell line, the relative viability (first compound 0.6325 µM) was 0.201 and the relative viability (first compound 2 µM) was 0.221.

For NCI-H358, the relative viability (first compound 0.02 µM) was 0.165, the relative viability (first compound 0.06325 µM) was 0.138 and the relative viability (first compound 0.2 µM) was 0.153. It also gave a relative viability (first compound 0.6325 µM) of 0.173 and a relative viability (first compound 2 µM) of 0.189.

NCI-H1944 showed a relative viability (first compound 0.02 µM) of 0.199, a relative viability (first compound 0.06325 µM) of 0.221 and a relative viability (first compound 0.2 µM) of 0.208. The relative viability (first compound 0.6325 µM) was 0.211 and the relative viability (first compound 2 µM) was 0.24.

EPLC-272H was tested, and the relative viability (first compound 0.02 µM) was 0.35, the relative viability (first compound 0.06325 µM) was 0.406 and the relative viability (first compound 0.2 µM) was 0.351. It also gave a relative viability (first compound 0.6325 µM) of 0.357 and a relative viability (first compound 2 µM) of 0.671.

NCI-H1915 gave a relative viability (first compound 0.02 µM) of 0.26, a relative viability (first compound 0.06325 µM) of 0.338 and a relative viability (first compound 0.2 µM) of 0.341. For the same cell line, the relative viability (first compound 0.6325 µM) was 0.318 and the relative viability (first compound 2 µM) was 0.363.

NCI-H596 gave a relative viability (first compound 0.02 µM) of 0.626, a relative viability (first compound 0.06325 µM) of 0.66 and a relative viability (first compound 0.2 µM) of 0.591. It also gave a relative viability (first compound 0.6325 µM) of 0.6 and a relative viability (first compound 2 µM) of 0.652.

NCI-H322M showed a relative viability (first compound 0.02 µM) of 0.268, a relative viability (first compound 0.06325 µM) of 0.266 and a relative viability (first compound 0.2 µM) of 0.251. The relative viability (first compound 0.6325 µM) was 0.271 and the relative viability (first compound 2 µM) was 0.261.

NCI-H2228 gave a relative viability (first compound 0.02 µM) of 0.561, a relative viability (first compound 0.06325 µM) of 0.571 and a relative viability (first compound 0.2 µM) of 0.523. The relative viability (first compound 0.6325 µM) was 0.472 and the relative viability (first compound 2 µM) was 0.533.

NCI-H2342 showed a relative viability (first compound 0.02 µM) of 0.313, a relative viability (first compound 0.06325 µM) of 0.331 and a relative viability (first compound 0.2 µM) of 0.312. It also gave a relative viability (first compound 0.6325 µM) of 0.285 and a relative viability (first compound 2 µM) of 0.305.

Cell Line NCI-H647 has a relative viability (first compound 0.02 µM) of 0.205, a relative viability (first compound 0.06325 µM) of 0.167 and a relative viability (first compound 0.2 µM) of 0.227. The relative viability (first compound 0.6325 µM) was 0.193 and the relative viability (first compound 2 µM) was 0.208.

Cell Line SK-MES-1 has a relative viability (first compound 0.02 µM) of 0.473, a relative viability (first compound 0.06325 µM) of 0.372 and a relative viability (first compound 0.2 µM) of 0.365. The relative viability (first compound 0.6325 µM) was 0.355 and the relative viability (first compound 2 µM) was 0.406.

For NCI-H2170, the relative viability (first compound 0.02 µM) was 0.522, the relative viability (first compound 0.06325 µM) was 0.695 and the relative viability (first compound 0.2 µM) was 0.494. For the same cell line, the relative viability (first compound 0.6325 µM) was 0.581 and the relative viability (first compound 2 µM) was 0.694.

Work on NCI-H2085 yielded a relative viability (first compound 0.02 µM) of 0.291, a relative viability (first compound 0.06325 µM) of 0.282 and a relative viability (first compound 0.2 µM) of 0.292. For the same cell line, the relative viability (first compound 0.6325 µM) was 0.263 and the relative viability (first compound 2 µM) was 0.341.

SW 1573 showed a relative viability (first compound 0.02 µM) of 0.471, a relative viability (first compound 0.06325 µM) of 0.383 and a relative viability (first compound 0.2 µM) of 0.586. The relative viability (first compound 0.6325 µM) was 0.471 and the relative viability (first compound 2 µM) was 0.424.

NCI-H727 gave a relative viability (first compound 0.02 µM) of 0.375, a relative viability (first compound 0.06325 µM) of 0.365 and a relative viability (first compound 0.2 µM) of 0.347. It also gave a relative viability (first compound 0.6325 µM) of 0.467 and a relative viability (first compound 2 µM) of 0.345.

NCI-H441 was tested, and the relative viability (first compound 0.02 µM) was 0.444, the relative viability (first compound 0.06325 µM) was 0.665 and the relative viability (first compound 0.2 µM) was 0.729. For the same cell line, the relative viability (first compound 0.6325 µM) was 0.548 and the relative viability (first compound 2 µM) was 0.681.

Work on LOU-NH91 yielded a relative viability (first compound 0.02 µM) of 0.577, a relative viability (first compound 0.06325 µM) of 0.601 and a relative viability (first compound 0.2 µM) of 0.536. For the same cell line, the relative viability (first compound 0.6325 µM) was 0.558 and the relative viability (first compound 2 µM) was 0.541.

Work on NCI-H3122 yielded a relative viability (first compound 0.02 µM) of 0.862, a relative viability (first compound 0.06325 µM) of 0.837 and a relative viability (first compound 0.2 µM) of 0.824. The relative viability (first compound 0.6325 µM) was 0.912 and the relative viability (first compound 2 µM) was 0.799.

NCI-H460 gave a relative viability (first compound 0.02 µM) of 0.425, a relative viability (first compound 0.06325 µM) of 0.597 and a relative viability (first compound 0.2 µM) of 0.543. The relative viability (first compound 0.6325 µM) was 0.494 and the relative viability (first compound 2 µM) was 0.547.

NCI-H650 was tested, and the relative viability (first compound 0.02 µM) was 0.4, the relative viability (first compound 0.06325 µM) was 0.479 and the relative viability (first compound 0.2 µM) was 0.434. The relative viability (first compound 0.6325 µM) was 0.377 and the relative viability (first compound 2 µM) was 0.459.

NCI-H661 gave a relative viability (first compound 0.02 µM) of 0.866, a relative viability (first compound 0.06325 µM) of 1.01 and a relative viability (first compound 0.2 µM) of 0.884. For the same cell line, the relative viability (first compound 0.6325 µM) was 0.943 and the relative viability (first compound 2 µM) was 0.925.

NCI-H1793 showed a relative viability (first compound 0.02 µM) of 0.352, a relative viability (first compound 0.06325 µM) of 0.431 and a relative viability (first compound 0.2 µM) of 0.391. The relative viability (first compound 0.6325 µM) was 0.404 and the relative viability (first compound 2 µM) was 0.411.

NCI-H1734 showed a relative viability (first compound 0.02 µM) of 0.468, a relative viability (first compound 0.06325 µM) of 0.472 and a relative viability (first compound 0.2 µM) of 0.513. It also gave a relative viability (first compound 0.6325 µM) of 0.466 and a relative viability (first compound 2 µM) of 0.438.

For LXF-289, the relative viability (first compound 0.02 µM) was 0.188, the relative viability (first compound 0.06325 µM) was 0.246 and the relative viability (first compound 0.2 µM) was 0.315. It also gave a relative viability (first compound 0.6325 µM) of 0.218 and a relative viability (first compound 2 µM) of 0.241.

Cell Line H3255 has a relative viability (first compound 0.02 µM) of 0.477, a relative viability (first compound 0.06325 µM) of 0.343 and a relative viability (first compound 0.2 µM) of 0.348. The relative viability (first compound 0.6325 µM) was 0.337 and the relative viability (first compound 2 µM) was 0.347.

201T was tested, and the relative viability (first compound 0.02 µM) was 0.518, the relative viability (first compound 0.06325 µM) was 0.571 and the relative viability (first compound 0.2 µM) was 0.56. For the same cell line, the relative viability (first compound 0.6325 µM) was 0.53 and the relative viability (first compound 2 µM) was 0.542.

NCI-H2126 showed a relative viability (first compound 0.02 µM) of 0.573, a relative viability (first compound 0.06325 µM) of 0.664 and a relative viability (first compound 0.2 µM) of 0.667. It also gave a relative viability (first compound 0.6325 µM) of 0.702 and a relative viability (first compound 2 µM) of 0.602.

Work on HOP-62 yielded a relative viability (first compound 0.02 µM) of 0.725, a relative viability (first compound 0.06325 µM) of 0.629 and a relative viability (first compound 0.2 µM) of 0.699. For the same cell line, the relative viability (first compound 0.6325 µM) was 0.652 and the relative viability (first compound 2 µM) was 0.679.

CAL-12T gave a relative viability (first compound 0.02 µM) of 0.494, a relative viability (first compound 0.06325 µM) of 0.691 and a relative viability (first compound 0.2 µM) of 0.454. It also gave a relative viability (first compound 0.6325 µM) of 0.425 and a relative viability (first compound 2 µM) of 0.495.

NCI-H520 gave a relative viability (first compound 0.02 µM) of 0.207, a relative viability (first compound 0.06325 µM) of 0.206 and a relative viability (first compound 0.2 µM) of 0.177. It also gave a relative viability (first compound 0.6325 µM) of 0.213 and a relative viability (first compound 2 µM) of 0.212.

In the case of NCI-H1755, the relative viability (first compound 0.02 µM) is reported as 0.435, the relative viability (first compound 0.06325 µM) is reported as 0.44 and the relative viability (first compound 0.2 µM) is reported as 0.431. The relative viability (first compound 0.6325 µM) was 0.45 and the relative viability (first compound 2 µM) was 0.414.

With NCI-H2023 the relative viability (first compound 0.02 µM) was 0.649, the relative viability (first compound 0.06325 µM) was 0.549 and the relative viability (first compound 0.2 µM) was 0.618. For the same cell line, the relative viability (first compound 0.6325 µM) was 0.6 and the relative viability (first compound 2 µM) was 0.552.

Cell Line NCI-H2009 has a relative viability (first compound 0.02 µM) of 0.314, a relative viability (first compound 0.06325 µM) of 0.332 and a relative viability (first compound 0.2 µM) of 0.327. It also gave a relative viability (first compound 0.6325 µM) of 0.279 and a relative viability (first compound 2 µM) of 0.305.
